Reference: article PMC4929566, “The metabolome of [2-^14C](−)-epicatechin in humans: implications for the assessment of efficacy, safety, and mechanisms of action of polyphenolic bioactives” (Scientific Reports, 2016)
Values joined by “and” are separate entries in the source; they are usually repeats but may differ in a detail not shown here. Equal values may be shown once.

Tests used:
[1] = Total [2-14C](−)-epicatechin-derived radioactivity in whole blood and plasma after oral intake; format: in vivo, humans; conditions: human
Method: (§1) The study was a single-center, open-label, and non-randomized study with two distinct elements: a run-in phase to establish a more defined dietary background of dietary flavanols and procyanidins and the subsequent ^14C-EC ADME study (Fig. 1B). Participants (n = 12) were enrolled in the run-in phase (day –17 to day –4) and asked to supplement their daily diet for 14 days with a commercially available flavanol-containing cocoa-based drink (250 mg cocoa flavanols; 40 mg of EC). This was followed by a 4-day period (day –4 to 0) of a low-flavanol diet. One day (study day -1) prior to the initialization of the ^14C-EC ADME study, all eligible participants were accommodated under controlled conditions at a metabolic research facility (Covance Clinical Pharmacology Inc., Wisconsin) until completion of the study. Based on the compliance of the first part of the study, 8 participants were selected to participate in the ^14C-EC ADME study. During the ^14C-EC ADME study (Fig. 1B.), volunteers received a low-flavanol, standardized high-fiber diet, and were encouraged to maintain an adequate level of hydration (water ad libitum). Volunteers were asked to fast for 8 h before the initiation of the study and for at least 4 h after the intake of the ^14C-EC test drink (water ad libitum). Venous blood samples were taken using Vacutainer collection tubes, containing potassium EDTA at 0 h (just prior to ^14C-EC ingestion), and at 0.25, 0.5, 1, 1.5, 2, 2.5, 3, 4, 6, 8, 10, 12, 16, 24, 36, and 48 h after test drink consumption. Plasma was obtained by whole blood centrifugation at 2000 × g for 15 min at 5 °C, separated into aliquots and stored at −80 °C until analysis. All urine and feces from the time just prior to the consumption of the test drink were collected at different time intervals for radioactivity and metabolite profiling. Clinical parameters and laboratory evaluations of participants were assessed at screening, on study day –1, and after completing the study, as detailed in Supplementary Methods.
(§2) The 50-mL drink consisted of an aqueous solution of ^14C-EC (specific activity 14.5 μCi μmol^−1) and delivered 60 mg (207 μmol) of EC and 300 μCi (660 × 10^6 dpm) of radioactivity. The drink was prepared one day before consumption to verify correctness of composition and stability. Volunteers received the ^14C-EC test drink (50 mL), followed by 3 × 50 mL of water that was used to rinse the test drink container, and 40 mL of water. The radioactivity remaining in the test drink containers was measured, and the residual radioactivity recovered from each container was subtracted from the amount administered to the corresponding volunteer.
(§3) Radioactivity in aliquots of plasma and urine was measured by liquid scintillation counting. Blood and feces were dried and oxidized by combustion using a 307 Sample Oxidizer (Packard Instrument Company, Meriden, NH) before being analyzed by liquid scintillation counting.

[2] = Metabolite profiling and quantification in urine (HPLC-MS2 with on-line radioactivity detector); format: in vivo, humans; conditions: human
Method: as §1
Samples were processed as described previously[18] and analyzed by HPLC-MS^2 in conjunction with an on-line HPLC-radioactivity monitor as described in SI Materials and Methods. Identification of metabolites involved comparing the retention time with authentic standards and MS^2 fragmentation patterns (Supplementary Methods). Quantification of metabolites in urine was based on HPLC radioactivity peak area (limit of quantification: 10^3 dpm). Due to the low levels of radioactivity, quantification in plasma was based on targeted HPLC-MS^2 using standard curves obtained with authentic standards (Supplementary Methods).
HPLC-MS identifications of radiolabeled [2-14C](−)-epicatechin metabolites in urine Urine was analyzed with radioactivity and mass spectrometry (MS) detection using a 250 mm x 4.6 mm i.d. 5 µm Luna Phenyl-Hexyl column (Phenomenex, Macclesfield, UK) […]
formic acid. Metabolite identification was performed by 1) co-chromatography of metabolites with reference compounds and a comparison of their MS fragmentation patterns 2, 2) by comparing m/z fragmentation patterns with earlier in-house observed […]
patterns to databases of metabolites reported in earlier polyphenol feeding studies5-7.
Supplementary Table S2, which also provides information on the MSI MI (Metabolite Standards Initiative – Metabolites Identification) level, a confidence level for identification where level 1 stands for fully elucidated (i.e., by comparison with a standard) and level 2 for a well characterized, but not yet fully structurally elucidated 8

[3] = SREM profile in plasma after intragastric 14C-EC, rat; format: in vivo, Sprague-Dawley rats; conditions: 30 min after 2 mg/kg BW intragastric 14C-EC
Method: To assess the profile of SREMs in rodents, Sprague-Dawley rats (male, 9–10 week old, 270 ± 16 g of BW) and C57BL/6 mice (20 ± 1 g) were administered by gavage 2 mg/kg BW of ^14C-EC (corresponding to ≈10.6 μCi/rat and 6.7 μCi/mouse). Blood samples were collected 30 min after administration. Plasma was obtained by centrifugation at 4 °C for 15 min at 1800xg, separated in aliquots and analyzed by HPLC as described previously[18] with an on-line radioactivity detector (Radiomatic 610TR Flow System Analyzer, PerkinElmer, Inc., Waltham, Mass).

[4] = Elimination and mass balance of radioactivity in urine and feces; format: in vivo, humans; conditions: human
Method: as §1, §2, §3

[5] = all volunteers, post-consumption

Time by which radioactivity in plasma fell below the limit of quantitation [1, 5]: ≤ 72 h
Time by which radioactivity in whole blood fell below the limit of quantitation [1, 5]: ≤ 36 h
Time after consumption at which radioactivity was detected in the circulation ([1]; oral 60 mg 14C-EC): 15 min
Total radioactivity in the circulatory system at Cmax, of the amount of 14C-EC ingested ([1]; calculated from whole blood concentration and blood volume): < 2%
Ingested 14C-EC absorbed via the colon / lower intestine ([2]; from urinary RFM excretion): ≈ 70% and 70%
Ingested 14C-EC absorbed from the small intestine ([2]; from urinary SREM excretion): 20%
Accumulated radioactivity voided in feces, of ingested 14C-EC ([4]; oral 60 mg 14C-EC): 12 ± 3%
Radioactivity in urine and feces combined, of intake ([4]; oral 60 mg 14C-EC): 95 ± 1%
Radioactivity not recovered in the collected samples ([4]; oral 60 mg 14C-EC): 5 ± 1%
Accumulated radioactivity eliminated in urine, of amount ingested ([4]; oral 60 mg 14C-EC, liquid scintillation counting, 0–48 h): 82 ± 5%
Ingested EC absorbed ([4]; oral 60 mg, n=8): 82 ± 5%
SMILES: Oc1cc(O)c2c(c1)O[C@H](c1ccc(O)c(O)c1)[C@H](O)C2 [^14C-EC, [2-^14C](−)-epicatechin]
Association of whole blood radioactivity with plasma vs cellular components [1]: associated, almost exclusively, with plasma
Detection in plasma [3]: No unmetabolized EC and sulfated SREMs were detected
